Data set [1] can be described thus: physchem. The conditions noted are these: aqueous buffer.
Data set [2] in a line: Solubility of DHPS and its degradation species.

In brackets after ≈: the same amount, converted by molar mass.

Regarding `O=S(=O)(O)c1ccc2nc3cc(O)c(O)cc3nc2c1` [DHPS, 7,8-Dihydroxyphenazinesulfonic acid], the solubility (commonly the concentration that dissolves in the medium under given conditions) in data set [1] lay within 1400 to 1600 mM (≈ 409 to 468 mg/mL).

`Oc1ccc2nc3ccccc3nc2c1` [MHP, Monohydroxyphenazine]: in data set [2] (DHPS solution up to 0.5 M), the “solubility in a DHPS solution” value is recorded as “does not change significantly”. Further, the solubility in data set [2] (aqueous buffer) was in the range of 100 to 300 mM (≈ 19.6 to 58.9 mg/mL).

Take `Oc1cc2nc3ccccc3nc2cc1O` [DHP, Dihydroxyphenazine]: the solubility in data set [1] was in the range of 200 to 400 mM (≈ 42.4 to 84.9 mg/mL).

For the origin of these results see patent US12731806B2, “Electrolyte regeneration for organic redox flow batteries based on water-soluble phenazine-based compounds” (CMBLU Energy AG, priority 2020, dated 2026).
